activation, EC50 and Emax data for 43 molecules are collected here from patent US20240150377A1, “MODULATORS OF CYSTIC FIBROSIS TRANSMEMBRANE CONDUCTANCE REGULATOR” (VERTEX PHARMACEUTICALS INCORPORATED, priority 2020, published 2024).

This test deals with T1, CFTR (Homo sapiens, UniProt P13569, DEL508-508).
T1 construct: endogenous in cells; host or cells: primary human bronchial epithelial cells from CF subjects (F508del/MF-HBE), differentiated at air-liquid interface
Nature of the test: HBE assay: Ussing chamber assay of CFTR-mediated short-circuit currents. The conditions noted are these: for pEC50: read-out: HBE EC50. Format: cell-based. The procedure, abridged: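 CFTR-mediated Isc (μA/cm²) equals the peak response to apical 20 μM forskolin minus the residual after a 20 μM each BPO/GlyH-101/CFTR inhibitor 172 cocktail, recorded in Ussing chambers at Vhold 0 mV, 37 °C, pH 7.4, with 30 μM apical amiloride. Cells were F508del/MF HBE cultures preincubated 18-24 h with corrector (concentration range or 10 μM) plus 1 μM ivacaftor in 20% human serum.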

[1] abbreviates: Table 11, read-out: HBE Activity at 10 μM (%).
Setting [2] is: Table 11, read-out: HBE Max Activity (%).
Where [3] appears, read: Table 10, read-out: HBE activity at 10 (μM) (%).
The mark [4] stands for this setting: Table 10, read-out: HBE Max activity (%).

pEC50: −log10 of the molar value. Read-outs that look alike come from different tables or passages of the source.

T1 sequence (P13569 with tags, fused parts or gaps DEL508-508): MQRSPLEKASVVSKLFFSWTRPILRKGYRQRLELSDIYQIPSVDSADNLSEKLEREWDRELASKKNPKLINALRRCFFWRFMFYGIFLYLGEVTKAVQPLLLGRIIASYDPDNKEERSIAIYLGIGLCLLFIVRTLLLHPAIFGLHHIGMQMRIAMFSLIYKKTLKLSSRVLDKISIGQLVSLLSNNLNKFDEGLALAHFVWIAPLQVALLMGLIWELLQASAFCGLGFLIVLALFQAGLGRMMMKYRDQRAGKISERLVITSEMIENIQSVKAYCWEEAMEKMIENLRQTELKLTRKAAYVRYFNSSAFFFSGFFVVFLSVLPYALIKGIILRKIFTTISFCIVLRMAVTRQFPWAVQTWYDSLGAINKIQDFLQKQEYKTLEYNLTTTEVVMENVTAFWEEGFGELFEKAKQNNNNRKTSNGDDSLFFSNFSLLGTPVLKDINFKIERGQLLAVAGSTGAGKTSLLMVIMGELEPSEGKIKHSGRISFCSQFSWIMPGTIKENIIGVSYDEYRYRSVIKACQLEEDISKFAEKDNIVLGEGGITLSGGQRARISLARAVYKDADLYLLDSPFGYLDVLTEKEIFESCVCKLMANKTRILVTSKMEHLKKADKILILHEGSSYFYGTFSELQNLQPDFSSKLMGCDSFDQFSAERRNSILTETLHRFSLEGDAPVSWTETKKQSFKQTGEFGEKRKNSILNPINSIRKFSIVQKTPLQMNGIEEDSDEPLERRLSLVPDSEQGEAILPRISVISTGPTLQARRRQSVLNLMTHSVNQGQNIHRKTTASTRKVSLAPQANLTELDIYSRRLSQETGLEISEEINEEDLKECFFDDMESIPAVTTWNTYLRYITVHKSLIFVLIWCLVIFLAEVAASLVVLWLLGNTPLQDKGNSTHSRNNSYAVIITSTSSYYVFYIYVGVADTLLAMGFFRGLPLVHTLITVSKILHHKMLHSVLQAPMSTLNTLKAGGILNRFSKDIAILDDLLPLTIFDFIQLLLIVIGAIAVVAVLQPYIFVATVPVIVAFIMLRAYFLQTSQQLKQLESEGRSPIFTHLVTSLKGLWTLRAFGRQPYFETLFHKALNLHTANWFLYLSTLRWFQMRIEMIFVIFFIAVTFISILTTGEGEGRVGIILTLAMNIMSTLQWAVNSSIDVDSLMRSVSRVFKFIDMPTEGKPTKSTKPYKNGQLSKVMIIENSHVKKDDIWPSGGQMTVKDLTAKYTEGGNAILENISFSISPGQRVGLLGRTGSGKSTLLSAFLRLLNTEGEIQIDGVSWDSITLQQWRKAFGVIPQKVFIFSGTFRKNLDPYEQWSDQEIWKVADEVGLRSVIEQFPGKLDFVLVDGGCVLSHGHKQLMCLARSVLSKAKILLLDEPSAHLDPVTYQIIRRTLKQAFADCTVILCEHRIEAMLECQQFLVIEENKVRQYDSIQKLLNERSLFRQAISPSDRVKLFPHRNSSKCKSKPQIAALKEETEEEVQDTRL

On to `Cc1cccc(C)c1-c1cc2nc(n1)NS(=O)(=O)c1cccc(c1)C(=O)N(Cc1ccc(OCCC(C)(C)C)cn1)[C@H](CC(C)(C)C)CO2` [Compound 746], for which, under setting [1], the activation at 10 µM is above 60%.
For the molecule `Cc1cccc(C)c1-c1cc2nc(n1)NS(=O)(=O)c1cccc(c1)C(=O)N(Cc1ccc(OCC(C)C)cn1)[C@H](CC(C)(C)C)CO2` [Compound 747], the activation at 10 µM under setting [1] is above 60%.
Turning to `Cc1cccc(C)c1-c1cc2nc(n1)NS(=O)(=O)c1cccc(c1)C(=O)N(Cc1ncc(N3CCCCC3)cn1)[C@H](CC(C)(C)C)CO2` [Compound 748], the activation at 10 µM under setting [1] was above 60%. The pEC50 (Table 11) is above 6.00. Further, under setting [2], the Emax is above 60%.
`Cc1cccc(C)c1-c1cc2nc(n1)NS(=O)(=O)c1cccc(c1)C1Oc3ccc4ncccc4c3CN1[C@H](CC(C)(C)C)CO2` (some centres unmarked) [Compound 750]: the activation at 10 µM under setting [3] is above 60%.
On the same count and under the same terms, as for `Cc1cccc(C)c1-c1cc2nc(n1)NS(=O)(=O)c1cccc(c1)C1Oc3ccc4cccnc4c3CN1[C@H](CC(C)(C)C)CO2` (some centres unmarked) [Compound 751], the figure is above 60%.
On the same count and under the same terms, the same measure for `Cc1cccc(C)c1-c1cc2nc(n1)NS(=O)(=O)c1cccc(c1)C1Oc3cnc4ccccc4c3CN1[C@H](CC(C)(C)C)CO2` (some centres unmarked) [Compound 752]: below 300%.
Same read-out and setting: as for `Cc1cccc(C)c1-c1cc2nc(n1)NS(=O)(=O)c1cccc(c1)C1Oc3ncc4ccccc4c3CN1[C@H](CC(C)(C)C)CO2` (some centres unmarked) [Compound 753], the figure is 30 to 60%; as for `COc1ccc2nc3c(cc2c1)CN1C(O3)c2cccc(c2)S(=O)(=O)Nc2nc(cc(-c3c(C)cccc3C)n2)OC[C@H]1CC(C)(C)C` (some centres unmarked) [Compound 754], above 60%; as for `Cc1cccc(C)c1-c1cc2nc(n1)NS(=O)(=O)c1cccc(c1)C1Oc3nc4ccccc4cc3CN1[C@H](CC(C)(C)C)CO2` (some centres unmarked) [Compound 755], above 60%.
In the case of `Cc1cccc(C)c1-c1cc2nc(n1)NS(=O)(=O)c1cccc(c1)C(=O)N(Cc1cc3c(cn1)OCCO3)[C@H](CC(C)(C)C)CO2` [Compound 758], under setting [1], the activation at 10 µM is above 60%.
Take `Cc1cccc(C)c1-c1nc2nc(c1C)OC[C@@H](CC(C)(C)C)N1Cc3cc(F)c(O)c(F)c3OC1c1cccc(c1)S(=O)(=O)N2` (some centres unmarked) [Compound 763]: the activation at 10 µM under setting [3] was above 60%.
`Cc1cccc(C)c1-c1cc2nc(n1)NS(=O)(=O)c1cccc(c1)C(=O)N(Cc1nccc3ccccc13)[C@H](CC(C)(C)C)CO2` [Compound 767]: the pEC50 (Table 10) is above 6.00. Besides, under setting [4], the Emax is above 60%.
The like results for `Cc1cccc(C)c1-c1cc2nc(n1)NS(=O)(=O)c1cccc(c1)C(=O)N(Cc1ccc(OCC(C)(C)C)cn1)[C@H](CC(C)(C)C)CO2` [Compound 768] were, in that order, 5.52 to 6.00 and above 60%.
Take `COc1c(F)cc(CN2C(=O)c3cccc(c3)S(=O)(=O)Nc3nc(cc(-c4c(C)cccc4C)n3)OC[C@H]2CC(C)(C)C)cc1F` [Compound 769]: the activation at 10 µM under setting [3] was above 60%.
Consider `COc1ccc(CN2C(=O)c3cccc(c3)S(=O)(=O)Nc3nc(cc(-c4c(C)cccc4C)n3)OC[C@H]2CC(C)(C)C)cc1` [Compound 770], for which the pEC50 (Table 10) is above 6.00. In addition, the Emax under setting [4] was above 60%.
`Cc1cccc(C)c1-c1cc2nc(n1)NS(=O)(=O)c1cccc(c1)C(=O)N(Cc1ncccc1CCC(C)(C)ON)[C@H](CC(C)(C)C)CO2` [Compound 771]: the activation at 10 µM under setting [3] is above 60%. The pEC50 (Table 10) is above 6.00. The Emax under setting [4] is above 60%.
Turning to `COc1cnc(CN2C(=O)c3cccc(c3)S(=O)(=O)Nc3nc(cc(-c4c(C)cccc4C)n3)OC[C@H]2CC(C)(C)C)nc1` [Compound 772], the pEC50 (Table 10) is above 6.00. For the same molecule, the Emax under setting [4] is above 60%.
As for `COc1ccnc(CN2C(=O)c3cccc(c3)S(=O)(=O)Nc3nc(cc(-c4c(C)cccc4C)n3)OC[C@H]2CC(C)(C)C)n1` [Compound 773], the pEC50 (Table 10) was above 6.00. The Emax under setting [4] was above 60%.
On to `Cc1cccc(C)c1-c1cc2nc(n1)NS(=O)(=O)c1cccc(c1)C(=O)N(Cc1cnnn1C)[C@H](CC(C)(C)C)CO2` [Compound 774], for which the activation at 10 µM under setting [1] was above 60%.
Regarding `CNC(=O)COc1ccccc1CN1C(=O)c2cccc(c2)S(=O)(=O)Nc2nc(cc(-c3c(C)cccc3C)n2)OC[C@H]1CC(C)(C)C` [Compound 775], the activation at 10 µM under setting [3] is above 60%.
`CNC(=O)COc1ccccc1CN1C(=O)c2cccc(c2)S(=O)(=O)Nc2nc(cc(-c3c(C)cccc3C)n2)OC[C@H]1CC(C)(C)C` [Compound 776]: the pEC50 (Table 10) was above 6.00. Also, the Emax under setting [4] is above 60%.
As for `Cc1cccc(C)c1-c1cc2nc(n1)NS(=O)(=O)c1cccc(c1)C(=O)N(Cc1ccccc1OCC(=O)NN)[C@H](CC(C)(C)C)CO2` [Compound 777], under setting [3], the activation at 10 µM was above 60%.
Consider `CNC(=O)COc1ccc(CN2C(=O)c3cccc(c3)S(=O)(=O)Nc3nc(cc(-c4c(C)cccc4C)n3)OC[C@H]2CC(C)(C)C)cc1` [Compound 778], for which the pEC50 (Table 10) is above 6.00. Besides, the Emax under setting [4] is above 60%.
The like results for `Cc1cccc(C)c1-c1cc2nc(n1)NS(=O)(=O)c1cccc(c1)C(=O)N(Cc1ccc(OCC(=O)N(C)C)cc1)[C@H](CC(C)(C)C)CO2` [Compound 779] were, in that order, above 6.00 and above 60%.
The like results for `Cc1cccc(C)c1-c1cc2nc(n1)NS(=O)(=O)c1cccc(c1)C(=O)N(Cc1ccc(OCC(N)=O)cc1)[C@H](CC(C)(C)C)CO2` [Compound 780] were, in that order, above 6.00 and above 60%.
The like results for `Cc1cccc(C)c1-c1cc2nc(n1)NS(=O)(=O)c1cccc(c1)C(=O)N(Cc1ccccc1OCC(C)(C)OO)[C@H](CC(C)(C)C)CO2` [Compound 781] were, in that order, above 6.00 and above 60%.
As to `Cc1cccc(C)c1-c1cc2nc(n1)NS(=O)(=O)c1cccc(c1)C(=O)N(Cc1ccc(-c3cnc(N)nc3)cc1)[C@H](CC(C)(C)C)CO2` [Compound 782], the pEC50 (Table 10) is above 6.00. Under setting [4], the Emax is above 60%.
On to `COc1ncc(-c2ccc(CN3C(=O)c4cccc(c4)S(=O)(=O)Nc4nc(cc(-c5c(C)cccc5C)n4)OC[C@H]3CC(C)(C)C)cc2)cn1` [Compound 783], for which, where the note is “Table 10”, the pEC50 is above 6.00. Also, under setting [4], the Emax was above 60%.
Consider `Cc1cccc(C)c1-c1cc2nc(n1)NS(=O)(=O)c1cccc(c1)C(=O)N(Cc1ccc3c(n1)C(C)CCO3)C(CC(C)(C)C)CO2` (centres unmarked) [Compound 794], for which the Emax under setting [4] is above 60%.
Consider `Cc1cccc(C)c1-c1cc2nc(n1)NS(=O)(=O)c1cccc(c1)C(=O)N(Cc1ccc([Si](C)(C)C)cc1)[C@H](CC(C)(C)C)CO2` [Compound 795], for which the activation at 10 µM under setting [3] is above 60%.
With `Cc1cccc(C)c1-c1cc2nc(n1)NS(=O)(=O)c1cccc(c1)C(=O)N(Cc1ccc(C3=CCCC3)cn1)[C@H](CC(C)(C)C)CO2` [Compound 810], the pEC50 (Table 11) was above 6.00. For the same molecule, the Emax under setting [2] is above 60%.
Take `Cc1cccc(C)c1-c1cc2nc(n1)NS(=O)(=O)c1cccc(c1)C(=O)N(Cc1cc(CO)ccn1)[C@H](CC(C)(C)C)CO2` [Compound 811]: under “Table 11”, the pEC50 was above 6.00. The Emax under setting [2] is above 60%.
Consider `Cc1cccc(C)c1-c1cc2nc(n1)NS(=O)(=O)c1cccc(c1)C(=O)N(Cc1cc(C(C)(C)O)ccn1)[C@H](CC(C)(C)C)CO2` [Compound 812], for which the pEC50 (Table 11) is above 6.00. The Emax under setting [2] is above 60%.
The like results for `Cc1cccc(C)c1-c1cc2nc(n1)NS(=O)(=O)c1cccc(c1)C(=O)N(Cc1nccc(C(C)(C)O)n1)[C@H](CC(C)(C)C)CO2` [Compound 813] were, in that order, above 6.00 and above 60%.
The like results for `Cc1cccc(C)c1-c1cc2nc(n1)NS(=O)(=O)c1cccc(c1)C(=O)N(Cc1nccc(C(C)(C)C)n1)[C@H](CC(C)(C)C)CO2` [Compound 814] were, in that order, above 6.00 and above 60%.
The like results for `Cc1cccc(C)c1-c1cc2nc(n1)NS(=O)(=O)c1cccc(c1)C(=O)N(Cc1ncc(C(C)(C)C)cn1)[C@H](CC(C)(C)C)CO2` [Compound 815] were, in that order, above 6.00 and above 60%.
Regarding `Cc1cccc(C)c1-c1cc2nc(n1)NS(=O)(=O)c1cccc(c1)C(=O)N(Cc1cccc(CO)n1)[C@H](CC(C)(C)C)CO2` [Compound 816], the pEC50 (Table 11) is above 6.00. The Emax under setting [2] is above 60%.
The like results for `Cc1cccc(C)c1-c1cc2nc(n1)NS(=O)(=O)c1cccc(c1)C(=O)N(Cc1cccc(C(C)(C)O)n1)[C@H](CC(C)(C)C)CO2` [Compound 817] were, in that order, above 6.00 and above 60%.
The like results for `Cc1cccc(C)c1-c1cc2nc(n1)NS(=O)(=O)c1cccc(c1)C(=O)N(CC1CCCOC1)[C@H](CC(C)(C)C)CO2` (some centres unmarked) [Compound 818] were, in that order, above 6.00 and above 60%.
Consider `Cc1cccc(C)c1-c1cc2nc(n1)NS(=O)(=O)c1cccc(c1)C(=O)N(CC1CCCOC1)[C@H](CC(C)(C)C)CO2` (some centres unmarked) [Compound 819], for which the pEC50 (Table 11) is above 6.00.
Turning to `Cc1cccc(C)c1-c1cc2nc(n1)NS(=O)(=O)c1cccc(c1)C(=O)N(CC1CCOCC1)[C@H](CC(C)(C)C)CO2` [Compound 820], under “Table 11”, the pEC50 was above 6.00. For the same molecule, the Emax under setting [2] was above 60%.
Regarding `Cc1cccc(C(C)C)c1-c1cc2nc(n1)NS(=O)(=O)c1cccc(c1)C(=O)N(Cc1ccc(N3CCOCC3)cn1)[C@H](CC(C)(C)C)CO2` [Compound 821], the activation at 10 µM under setting [1] was above 60%. The pEC50 (Table 11) is above 6.00. The Emax under setting [2] is above 60%.
`Cc1cccc(C)c1-c1cc2nc(n1)NS(=O)(=O)c1cccc(c1)C(=O)N(Cc1cn(C)nc1C)[C@H](CC(C)(C)C)CO2` [Compound 822]: the activation at 10 µM under setting [3] is above 60%.

For orientation: pEC50 means the negative decadic logarithm of the EC50, by convention in mol/L.
